US7115658B2 (priority 2002, dated 2006)

These compounds were tested against T1, Recombinant HCV polymerase (Hepatitis C virus genotype 1b, UniProt P26663) (assay: HCV Polymerase Inhibition Assay). Conditions: primer/template-directed transcription, 30 minutes at 30° C.; category symbol.
T1 construct: 2.5 pmoles (0.15 μg) HCV polymerase protein
T1 sequence (P26663 2420-3010): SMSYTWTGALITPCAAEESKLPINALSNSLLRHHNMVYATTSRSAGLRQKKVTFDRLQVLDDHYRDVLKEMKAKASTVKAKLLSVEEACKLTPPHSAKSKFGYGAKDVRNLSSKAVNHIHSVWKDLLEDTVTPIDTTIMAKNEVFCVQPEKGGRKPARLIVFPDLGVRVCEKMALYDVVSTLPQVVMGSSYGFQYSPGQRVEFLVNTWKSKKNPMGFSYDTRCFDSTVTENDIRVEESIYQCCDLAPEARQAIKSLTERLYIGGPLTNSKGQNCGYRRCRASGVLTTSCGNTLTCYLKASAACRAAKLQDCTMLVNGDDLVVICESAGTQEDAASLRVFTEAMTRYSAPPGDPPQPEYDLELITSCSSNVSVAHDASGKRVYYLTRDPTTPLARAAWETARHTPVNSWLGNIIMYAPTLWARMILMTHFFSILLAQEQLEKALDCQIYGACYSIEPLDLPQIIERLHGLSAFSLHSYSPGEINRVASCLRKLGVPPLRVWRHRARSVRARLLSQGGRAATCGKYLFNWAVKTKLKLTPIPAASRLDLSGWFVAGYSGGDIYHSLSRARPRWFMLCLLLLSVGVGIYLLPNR
Type: biochemical
Procedure: The above-described compounds were tested for activity with HCV polymerase. Recombinant HCV polymerase was tested for its ability to perform primer/template-directed transcription in assays that contained 30 mM tris-HCl pH 7.2, 10 mM MgCl2, 20 mM NaCl, 1 mM Dithiothreitol (DTT), 0.05% Tween-20, 1% glycerol, 5 pmoles biotin-dG12 (primer), 0.5 pmoles poly(rC)300 (template), 1 μM GTP, 0.1–0.3 uCi α-^32P-GTP, and 2.5 pmoles (0.15 μg) HCV polymerase protein in a final volume of 75 μL. Reactions were initiated by addition of enzyme and incubated 30 minutes at 30° C. Reactions were stopped by addition of 33 mM EDTA, and polynucleotide products were collected by filtration through Diethylaminoethyl (DE) Filtermat papers (Wallac). Unincorporated triphosphate was removed by washing the filters with 5% dibasic sodium phosphate. The filters were counted in a Packard Tri-Lux Microbeta scintillation counter (Packard Bioscience, Meriden, Conn.). Compounds to be tested were added at various concentrations, e.g., 1 μm to 50 μm, from stocks in 10% DMSO-water (final DMSO is 1% in reaction).
IC50 values were estimated from the primary cpm data (collected in triplicate) using the formula: cpm (I)=cpm (no inhibitor)(1−([I]/([I]+IC50))). An IC50 value represents the concentration (in μM) of a compound that provides 50% inhibition of polymerase-directed transcription in the above assay. A percent inhibition value is expressed for a compound where it was impractical to calculate an IC50 value with available data. If the IC50 estimated by the above equation was less than 200 nM, it was recalculated using the following equation, which takes into account the enzyme concentration (30 nM) in the assay: cpm(I)=cpm(no inhibitor)(1−((((I+IC50+30e−9)−sqrt(((I+IC50+30e−9)^2)−4×30e−9×I)))/((2) (30e−9))). Curve fitting was performed using the program KaleidaGraph (Synergy Software, Reading, Pa.).
Compound `O=C1CC(=O)OC(CCc2ccc3c(c2)OCCO3)(C2CCCC2)C1` (centres unmarked) [Example 32, 6-Cyclopentyl-6-[2-(2,3-dihydro-benzo[1,4]dioxin-6-yl)-ethyl]-dihydro-pyran-2,4-dione] has an IC50 of 1 to 10 µM.
Work on `COc1ccc(CCC2(C3CCCC3)CC(O)=C(Sc3nnc(C)s3)C(=O)O2)cc1Cl` (centres unmarked) [Example 125, 6-[2-(3-Chloro-4-methoxy-phenyl)-ethyl]-6-cyclopentyl-4-hydroxy-3-(5-methyl-[1,3,4]thiadiazol-2-ylsulfanyl)-5,6-dihydro-pyran-2-one] yielded an IC50 of under 1 µM.
`COc1ccc(CCC2(C3CCCC3)CC(O)=C(Sc3nc(N)n[nH]3)C(=O)O2)cc1` (centres unmarked) [Example 115, 3-[(3-Amino-1H-1,2,4-triazol-5-yl)thio]-6-cyclopentyl-4-hydroxy-6-[2-(4-methoxyphenyl)ethyl]-5,6-dihydro-2H-pyran-2-one] was tested, and the IC50 was 1 to 10 µM.
For `Cc1cc(SC2=C(O)CC(CCc3cc(Cl)c(N)c(Cl)c3)(C(C)C)OC2=O)c(C(C)(C)C)cc1N` (centres unmarked) [Example 138, 3-(4-Amino-2-tert-butyl-5-methyl-phenylsulfanyl)-6-[2-(4-amino-3,5-dichloro-phenyl)-ethyl]-4-hydroxy-6-isopropyl-5,6-dihydro-pyran-2-one], the IC50 was 10 to 50 µM.
`COc1ccc(CCC2(C3CCCC3)CC(O)=C(Sc3nc4nc[nH]c4c(=O)[nH]3)C(=O)O2)cc1` (centres unmarked) [Example 118, 2-((6-Cyclopentyl-4-hydroxy-6-[2-(4-methoxyphenyl)ethyl]-2-oxo-5,6-dihydro-2H-pyran-3-yl}thio)-1,7-dihydro-6H-purin-6-one] showed an IC50 of under 1 µM.
`CC1(c2ccc(CCC3(C4CCCC4)CC(=O)CC(=O)O3)cc2)CC(=O)CC(=O)O1` (centres unmarked) [Example 66] gave an IC50 of under 1 µM.
Work on `O=C1OC(CCc2ccc(OCc3ccccc3)cc2)(C2CCCC2)CC(O)=C1Sc1cccc2ccccc12` (centres unmarked) [Example 86, 6-[2-(4-Benzyloxyphenyl)ethyl]-6-cyclopentyl-4-hydroxy-3-(napthalen-1-ylsulfanyl)-5,6-dihydropyran-2-one] yielded an IC50 of 1 to 10 µM.
With `COc1ccc(CCC2(C3CCCC3)CC(O)=C(Sc3ccccc3)C(=O)O2)cc1Cl` (centres unmarked) [Example 102, 6-[2-(3-Chloro-4-methoxy-phenyl)-ethyl]-6-cyclopentyl-4-hydroxy-3-phenylsulfanyl-5,6-dihydro-pyran-2-one] the IC50 was under 1 µM.
`COC(=O)Cc1ccc(CCC2(C3CCCC3)CC(=O)CC(=O)O2)cc1` (centres unmarked) [Example 10, {4-[2-(2-Cyclopentyl-4,6-dioxo-tetrahydro-pyran-2-yl)-ethyl]-phenyl}-acetic acid methyl ester] showed an IC50 of 10 to 50 µM.
“5-Trifluoromethyl-pyridine-2-sulfonic acid[5-tert-butyl-4-(6,6-dicyclopentyl-4-hydroxy-2-oxo-5,6-dihydro-2H-pyran-3-ylsulfanyl)-2-methyl-phenyl]-amide [Example 185]” was tested, and the IC50 was 10 to 50 µM.
Work on `CC(=O)c1cccc(CCC2(C3CCCC3)CC(=O)CC(=O)O2)c1` (centres unmarked) [Example 64, 6-[2-(3-Acetyl-phenyl)-ethyl]-6-cyclopentyl-dihydro-pyran-2,4-dione] yielded an IC50 of 1 to 10 µM.
In the case of `O=C1CC(=O)OC(CCc2ccc(C(=O)N3CC[C@H](O)C3)cc2)(C2CCCC2)C1` (stereo in doubt) [Example 69, 6-Cyclopentyl-6-{2-[4-(3-hydroxy-pyrrolidine-1-carbonyl)-phenyl]-ethyl}-dihydro-pyran-2,4-dione], the IC50 is reported as 10 to 50 µM.
In the case of `CCCCN(C1=C(O)C[C@@](CCc2cccc(O)c2)(C2CCCC2)OC1=O)c1ccccc1` [Example 157, (S)-3-(butyl-phenyl-amino)-6-Cyclopentyl-4-hydroxy-6-[2-(3-hydroxy-phenyl)-ethyl]-5,6-dihydro-pyran-2-one], the IC50 is reported as 1 to 10 µM.
`Cc1cc(SC2=C(O)CC(CCc3ccc(O)cc3)(C3CCCC3)OC2=O)c(C(C)(C)C)cc1C(N)=O` (centres unmarked) [Example 146, 5-tert-butyl-4-{6-Cyclopentyl-4-hydroxy-6-[2-(4-hydroxy-phenyl)-ethyl]-2-oxo-5,6-dihydro-2H-pyran-3-ylsulfanyl}-2-methyl-benzamide] showed an IC50 of 1 to 10 µM.
